The test system of one series is male ICR mice. The series can be described thus: Mice tail suspension test. Type of series: in vivo. Particulars: for IT (sec), immobility time: 20.0 mg/kg single intragastric administration, 1 h before test, 4 min observation, n=12; for Improvement (%): 20.0 mg/kg single oral administration, versus blank control IT; for effect on immobility time in the tail suspension test (in words): efficacy similar to Venlafaxine. Here is the method:
Through intragastric administration, 10 mL·kg^−1 of each sample (physiological saline for the blank control group) is administrated. After 1 h of the treatment, the mouse is held with a medical tape at a position around 2 cm from the tip of its tail and hung upside-down in the suspension cage with its head 5 cm away from the bottom of the cage. The observation starts right after the mouse is suspended for 2 min and continues for 4 min. The time during which the mouse is immobile (no struggling or only tiny movements of its body/limbs) in this 4 min is accumulated (IT, immobility time). The percentage of the improvement is calculated according to the equation: Improvement %=[IT (blank control group)−IT (compound treatment group)]/IT (blank control group)×100%

The target of another series is 5-HT Transporter (hSERT) (Homo sapiens, UniProt P31645). As to the kind of experiment: Inhibition of [3H]-5-HT reuptake in HEK 293 cells stably expressing hSERT.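 As to all read-outs here: compound preincubated 10 min at 30 °C, then 10 min uptake, filter-bound radioactivity counted by scintillation, inhibition relative to total (blank) minus non-specific (positive control) uptake.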 Particulars: for inhibition at 10 µM: HEK293, read-out: 5-HT Reuptake Inhibition; for 5-HT Reuptake Inhibition: 10 μmol/L final concentration (b487 prints 0.1 mmol/L), HEK 293 hSERT cells, [3H]-5-HT.
Chain of 5-HT Transporter (hSERT) (P31645 whole entry): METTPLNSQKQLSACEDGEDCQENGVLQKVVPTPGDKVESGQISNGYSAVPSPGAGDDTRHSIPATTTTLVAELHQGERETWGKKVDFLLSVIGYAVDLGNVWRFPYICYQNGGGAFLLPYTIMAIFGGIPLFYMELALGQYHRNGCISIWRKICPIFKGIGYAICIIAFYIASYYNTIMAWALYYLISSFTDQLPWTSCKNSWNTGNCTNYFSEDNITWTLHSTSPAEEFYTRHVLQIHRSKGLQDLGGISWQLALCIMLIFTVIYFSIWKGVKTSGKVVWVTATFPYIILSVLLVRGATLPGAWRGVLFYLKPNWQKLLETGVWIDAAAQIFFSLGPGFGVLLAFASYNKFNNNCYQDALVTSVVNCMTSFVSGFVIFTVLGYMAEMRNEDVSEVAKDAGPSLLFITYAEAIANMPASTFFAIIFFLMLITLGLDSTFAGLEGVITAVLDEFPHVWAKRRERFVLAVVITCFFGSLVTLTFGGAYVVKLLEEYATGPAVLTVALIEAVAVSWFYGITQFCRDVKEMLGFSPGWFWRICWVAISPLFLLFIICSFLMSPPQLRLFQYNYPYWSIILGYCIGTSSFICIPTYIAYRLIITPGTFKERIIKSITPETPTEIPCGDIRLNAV
A further series relates to male Kunming mice. The series can be described thus: Mice forced swimming test. It is filed as in vivo. Particulars: for effect in the forced swimming test (in words): 20 mg/kg; for IT (sec), immobility time: 20.0 mg/kg single intragastric administration, 1 h before test, last 4 min of 6 min, n=12. As to the method:
Through intragastric administration, 10 mL·kg^−1 of each sample (physiological saline for the blank control group) is administrated. The mice are pre-screened for swimming one day before the actual test. The mouse is placed into water (25° C., 10 cm deep) in a glass tank (height 20 cm, diameter 14 cm) and forced to swim for 6 min. Those who stop swimming at around 70-160 s are chosen for the actual test which starts 24 h later. After 1 h of the administration, the forced swimming test is performed by placing the animal into the above-mentioned environment to swim for 6 min. The accumulative immobility time for the last 4 min is recorded. Data is statistically analyzed with t-test.

Another series deals with NA Transporter (hNAT) (Homo sapiens, UniProt P23975). As to the kind of experiment: Inhibition of [3H]-NA reuptake in HEK 293 cells stably expressing hNAT. The following applies: for inhibition at 10 µM: HEK293, read-out: NA Reuptake Inhibition; for NA Reuptake Inhibition: 10 μmol/L final concentration (b487 prints 0.1 mmol/L), HEK 293 hNAT cells, [3H]-NA.
Chain of NA Transporter (hNAT) (P23975 whole entry): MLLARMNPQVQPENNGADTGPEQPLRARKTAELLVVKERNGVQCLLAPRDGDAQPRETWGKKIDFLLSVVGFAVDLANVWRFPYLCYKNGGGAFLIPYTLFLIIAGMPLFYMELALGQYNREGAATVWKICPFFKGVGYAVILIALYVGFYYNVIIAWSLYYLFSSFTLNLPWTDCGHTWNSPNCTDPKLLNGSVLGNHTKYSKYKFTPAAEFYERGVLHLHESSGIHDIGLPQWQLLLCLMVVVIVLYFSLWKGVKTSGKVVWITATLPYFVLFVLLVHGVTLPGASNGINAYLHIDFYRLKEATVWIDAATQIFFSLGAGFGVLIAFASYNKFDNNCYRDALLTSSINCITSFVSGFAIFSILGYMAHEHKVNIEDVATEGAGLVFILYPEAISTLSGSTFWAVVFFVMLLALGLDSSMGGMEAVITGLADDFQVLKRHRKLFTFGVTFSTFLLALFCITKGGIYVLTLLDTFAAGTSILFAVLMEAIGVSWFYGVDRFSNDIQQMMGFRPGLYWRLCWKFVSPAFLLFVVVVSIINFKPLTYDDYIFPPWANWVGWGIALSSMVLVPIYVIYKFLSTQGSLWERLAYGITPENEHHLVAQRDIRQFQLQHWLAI
The nature of series [1]: Acute toxicity experiment (single oral gavage). Particulars: mouse, in vivo; mice, single oral gavage; Bliss method; read-out: LD50.
Series [2] has as its system Histidine auxotroph mutant of mouse salmonella TA97, TA98, TA100 and TA102. Type of series: cell-based. From the text: 5. […] 6. Bacterial Reverse Mutation Test of Compounds VI-1 VI-2 and VI16 • Strains: Histidine auxotroph mutant of mouse salmonella TA97, TA98, TA100 and TA102. • Test method: The one reported in Maron DM et al: (1983) Mutay Res. 113, 173-216 is used. • Results: The test consists of two parts, i.e., −S9 and +S9. […] No bacteriostatic actions to all the strains are observed at all the other dosages, and the growth background is good.

Another series concerns the target DA Transporter (hDAT) (Homo sapiens, UniProt Q01959). As to the kind of experiment: Inhibition of [3H]-DA reuptake in HEK 293 cells stably expressing hDAT. Particulars: for inhibition at 10 µM: HEK293, read-out: DA Reuptake Inhibition; for DA Reuptake Inhibition: 10 μmol/L final concentration (b487 prints 0.1 mmol/L), HEK 293 hDAT cells, [3H]-DA.
In another series the test system is rats. As to the kind of experiment: Learned helplessness experiment (conditioned avoidance test). It is filed as in vivo. From the text:
(1) Principles • This is an animal model of depression. In this experiment, an animal is placed under conditions with aversive stimulus which it can't escape. […] This is a well recognized depression state, in which the level of catecholamine in the animal's brain is reduced. An antidepressant can act against this state. The learned helplessness model is sensitive to a variety of antidepressants used in a sub-long period (3-7 d), including tricyclic antidepressants, monoamine oxidase inhibitors, monoamine reuptake inhibitors and atypical antidepressants.
(2) Test Method • The animals are grouped. The pre-shock animals are generated the first day by performing inescapable electric shock. The pre-shock animals are given foot electric shock (0.8 mA, 15 s) for 60 times (1 min interval). Rats in the control group are only put into the cage for a same period of time but without any electric shock. • The administration of drugs starts the next day and lasts for one week. […] The conditioned avoidance test is conducted 24 h after the last administration to determine the number of times of successful avoidance and the incubation period of escape.

The mark [3] stands for this setting: 30 mg/kg, one week, test 24 h after last administration, n = 10.
Where [4] appears, read: Venlafaxine 30 mg/kg, VI-2 at 3 doses (20, 10, 5 mg/kg).

Chain of DA Transporter (hDAT) (Q01959 whole entry): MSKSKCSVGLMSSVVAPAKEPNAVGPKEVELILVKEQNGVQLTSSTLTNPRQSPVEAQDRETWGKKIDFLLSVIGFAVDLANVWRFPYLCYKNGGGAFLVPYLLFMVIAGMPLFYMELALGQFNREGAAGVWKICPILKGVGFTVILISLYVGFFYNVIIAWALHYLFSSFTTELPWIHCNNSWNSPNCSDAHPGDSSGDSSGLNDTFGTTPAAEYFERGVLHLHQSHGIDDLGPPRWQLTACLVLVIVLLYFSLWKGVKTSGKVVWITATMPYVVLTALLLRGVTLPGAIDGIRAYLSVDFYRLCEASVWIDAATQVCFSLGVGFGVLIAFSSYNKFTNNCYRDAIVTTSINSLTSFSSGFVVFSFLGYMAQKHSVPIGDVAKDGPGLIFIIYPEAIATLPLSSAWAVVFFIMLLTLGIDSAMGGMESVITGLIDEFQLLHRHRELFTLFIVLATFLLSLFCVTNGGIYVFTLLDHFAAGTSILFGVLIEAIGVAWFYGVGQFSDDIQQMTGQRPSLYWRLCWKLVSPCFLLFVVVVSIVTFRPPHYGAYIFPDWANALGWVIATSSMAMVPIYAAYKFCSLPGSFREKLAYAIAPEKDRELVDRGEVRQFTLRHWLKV

In general, inhibition refers to the change of the read-out against control, counted positive when it falls. Broadly, the LD50 is the dose at which mortality reaches 50%. Regarding `CN(C)CCC(c1csc2ccccc12)N1CCCCC1` (stereo not drawn), in the series on male ICR mice, the “IT (sec), immobility time” value was determined as 45.21 ± 28.19 s and the “Improvement (%)” value came to 54.42%. The “effect on immobility time in the tail suspension test (in words)” value (from here on “effect on immobility time”) in the series on male ICR mice (20 mg/kg) is on record as “significant reduction in the immobility time”. Besides, on 5-HT Transporter (hSERT), the “inhibition effect towards the reuptake of 5-HT (in words)” value (“inhibition effect towards the reuptake” below) is given as “relatively strong inhibition effect” and the inhibition at 10 µM came to 90.5%. Besides, in the series on male Kunming mice, the “effect in the forced swimming test (in words)” value was “significant reduction in the immobility time” and the “IT (sec), immobility time” value amounted to 62.1 ± 42.9 s. The inhibition at 10 µM at NA Transporter (hNAT) turned out to be 92.1%. In addition, in series [1], the LD50 came out at 870 mg/kg. The bacteriostatic action entry in series [2] (5000 μg per dish, TA98 without S9 and TA97 with S9, none at other dosages) is reported as “bacteriostatic action is showed”. The Ames test result in series [2] (TA97, TA98, TA100, TA102, with or without S9, all test dosages) was “negative”. The inhibition at 10 µM at DA Transporter (hDAT) was 80.2%.
`Clc1ccc(C(CCN2CCOCC2)N2CCCC2)cc1Cl` (stereo not drawn) [VI-6]: in the series on male ICR mice, the “IT (sec), immobility time” value was 25.68 ± 14.25 s and the “Improvement (%)” value was found to be 74.11%. The “effect on immobility time” value in the series with male ICR mice (20 mg/kg) was “significant reduction in the immobility time”. Further, the “5-HT Reuptake Inhibition” value on 5-HT Transporter (hSERT) stood at 106.3%. In the series on male Kunming mice, the “effect in the forced swimming test (in words)” value is “significant difference from that of the blank control” and the “IT (sec), immobility time” value amounted to 79.3 ± 53.1 s. Besides, on NA Transporter (hNAT), the “NA Reuptake Inhibition” value is on record as 101.4%. Also, the “DA Reuptake Inhibition” value on DA Transporter (hDAT) was 106.4%.
In the case of `CN(C)CCC(c1csc2ccccc12)N1CCCC1` (stereo not drawn) [VI-13, N,N-dimethyl-3-(benzothiophen-3-yl)-3-(pyrrolidin-1-yl)-propylamine], the “IT (sec), immobility time” value with male ICR mice was 38.29 ± 23.76 s; in the series on male Kunming mice, 44.9 ± 53.7 s. In the series on male ICR mice, the “Improvement (%)” value came out at 61.40%. In addition, the “effect on immobility time” value in the series on male ICR mice (20 mg/kg) is listed as “significant reduction in the immobility time”. The inhibition at 10 µM on 5-HT Transporter (hSERT) was 96.6%; on NA Transporter (hNAT), 98.8%; on DA Transporter (hDAT), 96.9%. Besides, in the series with male Kunming mice, the “effect in the forced swimming test (in words)” value is “significant reduction in the immobility time”.
For the compound `CN(C)CCC(c1cc2ccccc2s1)N1CCCC1` (stereo not drawn) [VI-19, N,N-dimethyl-3-(benzothiophen-2-yl)-3-(pyrrolidin-1-yl)-propylamine], the figures for the “IT (sec), immobility time” value in the series with male ICR mice and in the series on male Kunming mice were 50.28 ± 21.30 s and 60.7 ± 26.7 s, respectively. Also, the “Improvement (%)” value with male ICR mice is 49.31%. For the same compound, the “effect on immobility time” value with male ICR mice (20 mg/kg) was “significant reduction in the immobility time”. The values for the inhibition at 10 µM at 5-HT Transporter (hSERT), at NA Transporter (hNAT) and on DA Transporter (hDAT) were 95.3%, 91.2% and 75.6%, respectively. Also, in the series on male Kunming mice, the “effect in the forced swimming test (in words)” value is listed as “significant reduction in the immobility time”.
In the case of `CN(C)CCC(c1cc2ccccc2s1)N1CCCCC1` (stereo not drawn) [VI-22, N,N-dimethyl-3-(benzothiophen-2-yl)-3-piperidinyl-propylamine], in the series with male ICR mice, the “IT (sec), immobility time” value was 65.25 ± 28.39 s and the “Improvement (%)” value is listed as 34.22%. Moreover, at 5-HT Transporter (hSERT), the “inhibition effect towards the reuptake” value is “relatively strong inhibition effect” and the “5-HT Reuptake Inhibition” value was 96.3%. For the same compound, in the series on male Kunming mice, the “effect in the forced swimming test (in words)” value is on record as “significant reduction in the immobility time” and the “IT (sec), immobility time” value is 75.4 ± 40.3 s. The “NA Reuptake Inhibition” value on NA Transporter (hNAT) is 99.8%. Besides, the “DA Reuptake Inhibition” value on DA Transporter (hDAT) is 96.5%.
As for `CN(C)CCC(c1c[nH]c2ccccc12)N1CCOCC1` (stereo not drawn) [VI-31, N,N-dimethyl-3-(indol-3-yl)-3-morpholinyl-propylamine], in the series with male ICR mice, the “IT (sec), immobility time” value is 78.36 ± 23.00 s and the “Improvement (%)” value is given as 20.84%. Further, on 5-HT Transporter (hSERT), the “inhibition effect towards the reuptake” value is “relatively strong inhibition effect” and the “5-HT Reuptake Inhibition” value is listed as 87.9%. Also, in the series with male Kunming mice, the “effect in the forced swimming test (in words)” value is reported as “significant difference from that of the blank control” and the “IT (sec), immobility time” value worked out at 99.7 ± 43.7 s. Further, the “NA Reuptake Inhibition” value at NA Transporter (hNAT) turned out to be 88.1%. Besides, the “DA Reuptake Inhibition” value at DA Transporter (hDAT) is listed as 75.6%.
Take `COc1ccc2cc(C(CCN(C)C)N3CCCC3)ccc2c1Cl` (stereo not drawn) [VI-36, N,N-dimethyl-3-(5-chloro-6-methoxynaphthalen-2-yl)-3-(pyrrolidin-1-yl)-propylamine]: the “IT (sec), immobility time” value with male ICR mice came out at 39.91 ± 18.35 s; in the series with male Kunming mice, 90.6 ± 48.0 s. Moreover, the “Improvement (%)” value in the series on male ICR mice was found to be 59.29%. In addition, in the series on male ICR mice (20 mg/kg), the “effect on immobility time” value is listed as “significant reduction in the immobility time”. Also, the inhibition at 10 µM is 98.3% on 5-HT Transporter (hSERT), 97.8% at NA Transporter (hNAT) and 87.2% at DA Transporter (hDAT). Moreover, the “effect in the forced swimming test (in words)” value in the series with male Kunming mice is given as “significant difference from that of the blank control”.
Take `CN(C)CCCC(c1csc2ccccc12)N1CCOCC1` (stereo not drawn) [VI-46, N,N-dimethyl-4-(benzothiophen-3-yl)-4-morpholinyl-butylamine]: in the series on male ICR mice, the “IT (sec), immobility time” value worked out at 86.19 ± 35.87 s and the “Improvement (%)” value stood at 13.01%. Moreover, on 5-HT Transporter (hSERT), the “inhibition effect towards the reuptake” value is on record as “relatively strong inhibition effect” and the “5-HT Reuptake Inhibition” value is given as 92.3%. Further, in the series on male Kunming mice, the “effect in the forced swimming test (in words)” value is “significant difference from that of the blank control” and the “IT (sec), immobility time” value is 97 ± 48.5 s. The “NA Reuptake Inhibition” value on NA Transporter (hNAT) is given as 89.5%. In addition, at DA Transporter (hDAT), the “DA Reuptake Inhibition” value stood at 78.0%.
Take `COc1ccc(C(CN(C)C)C2(O)CCCCC2)cc1` (stereo not drawn) [Venlafaxine, reference compound]: in the series with male ICR mice (20 mg/kg), the “immobility time” value stood at 36.97 ± 21.10 s. In the series with male ICR mice, the “IT (sec), immobility time” value was 36.97 ± 21.10 s and the “Improvement (%)” value was 62.73%. Also, in the series with rats (setting [3]), the “Incubation period of escape” value is given as 72.8 ± 77.26 s and the “Number of times of successful avoidance” value was determined as 19.4 ± 6.88. In the series with rats (setting [4]), the “incubation period of escape (in words)” value was “significantly shortened incubation period of escape” and the “times of successful avoidance (in words)” value is on record as “relatively more times of successful avoidance”. For the same compound, the “IT (sec), immobility time” value with male Kunming mice was found to be 77.4 ± 47.2 s. At NA Transporter (hNAT), the inhibition at 10 µM is 96.4%. Further, the inhibition at 10 µM on DA Transporter (hDAT) stood at 52.4%.

Values taken from US8962621B2 (Shanghai Institute of Pharmaceutical Industry, priority 2010, dated 2015).
